Target: T1, hOAT3 (Homo sapiens, UniProt Q8TCC7)
T1 construct: expressed in transfected cells; host or cells: HEK293
T1 sequence (Q8TCC7 1-542): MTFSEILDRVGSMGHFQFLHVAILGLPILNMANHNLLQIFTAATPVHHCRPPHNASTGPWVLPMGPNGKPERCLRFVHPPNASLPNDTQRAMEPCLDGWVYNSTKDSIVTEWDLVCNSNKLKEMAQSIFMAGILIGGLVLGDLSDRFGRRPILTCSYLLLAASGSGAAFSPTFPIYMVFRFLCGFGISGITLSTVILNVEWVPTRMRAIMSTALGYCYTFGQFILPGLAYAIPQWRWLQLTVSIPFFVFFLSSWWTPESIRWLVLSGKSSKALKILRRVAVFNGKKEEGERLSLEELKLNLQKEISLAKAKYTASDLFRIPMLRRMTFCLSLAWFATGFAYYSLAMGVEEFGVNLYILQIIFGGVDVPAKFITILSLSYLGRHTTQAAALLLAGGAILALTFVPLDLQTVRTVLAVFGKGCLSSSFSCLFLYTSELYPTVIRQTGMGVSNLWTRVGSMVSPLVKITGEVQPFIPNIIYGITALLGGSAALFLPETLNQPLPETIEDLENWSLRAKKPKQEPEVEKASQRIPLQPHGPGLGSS
Experiment: Two-point inhibition of hOAT3-mediated ES uptake in transfected HEK293 cells
Type: in vitro ADME
Details: ES 1 μM, 1 min
Protocol: Well-characterized mOct1-, mOct2-, mOat1-, mOat2-, mOat3-, mMate1-, hOAT1-, hOAT3-, hOAT4-, hMRP2-, mMdr1a- and mMdr1b-transfected HEK293 cells and the respective vector-transfected control HEK293 cells were used.[42],[51],[52] All HEK293 cells (transporter-transfected and vector-transfected) were cultured in DMEM (Sigma, high glucose, 10% FBS, 1% penicillin (10,000 Units/mL)/streptomycin (10 mg/mL)) at 37°C under 5% CO2 in humidified atmosphere. The cells were routinely checked for the absence of mycoplasma infection. For the preparation of HEK293 cell monolayers, 24-well plates were pretreated with a poly-D-lysine hydrobromide solution (0.1 mg/mL). […]
For the uptake assay, the growth medium was aspirated, and each well was rinsed three times with 0.5 mL of incubation buffer (HBSS supplemented with 20 mM HEPES, pH 7.4) and incubated for 20 min at 37 °C. […] Cells were solubilized with 0.6 mL of 1N NaOH overnight and transferred into scintillation vials. ^3H and ^14C contents were measured after the addition of 2.5 mL of scintillator in a liquid scintillation counter.
The cellular protein amount was determined in parallel for each cell line (vector- and transporter-transfected) from six wells in a different 24-well reference plate using the Bradford method. […]
The inhibitory effect (I(%)) was calculated according to the formula: [drawing 5] […]

SMILES	inhibition of hOAT3 (in words) (1 and 10 μM)	inhibition at 10 µM (HEK293, at 10 μM, read-out: inhibitory effect on hOAT3) [%]
Cc1ccc2c(C)c3c(c(O)c2c1O)C(=O)[C@@]1(O)C(=O)C(C(N)=O)=C(O)[C@@H](N)[C@H]1C3 [CDCHD, amidochelocardin]	only marginally	
CC(=O)C1=C(O)[C@@H](N)[C@H]2Cc3c(c(O)c4c(O)c(C)ccc4c3C)C(=O)[C@@]2(O)C1=O [CHD, chelocardin]		~75

Reference: publication PMC11249637, “Interaction of the Atypical Tetracyclines Chelocardin and Amidochelocardin with Renal Drug Transporters” (ACS Pharmacology & Translational Science, 2024)
